Experimental data reported in patent US12509431B2, “1,4-dihydroquinazolinone compounds and uses thereof” (Edgewise Therapeutics, Inc., priority 2022, dated 2025).

What was measured:
Type in all cases: biochemical
[1] = system: Rabbit Skeletal myofibrils (rabbit psoas muscle); assay: Myofibril ATPase assay (PK/LDH NADH-coupled), skeletal myofibrils
In short: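 ATPase rate taken as linear-regression slope of A340 (NADH depletion through PK/LDH coupling) over a 75 min kinetic read, with psoas-derived rabbit skeletal myofibrils at pH 7.0. Four-parameter fits of vehicle-normalized activity give EC25 and, where reached, EC50.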

[2] = molecular target: T1, Porcine Ventricle myofibrils (left ventricle of Yucatan minipigs) (Sus scrofa, UniProt P79293); assay: Myofibril ATPase assay (PK/LDH NADH-coupled), ventricle myofibrils
T1 construct: Myofibrils from porcine cardiac muscle was isolated from the left ventricle of Yucatan minipigs; tissue Exemplar Genetics; host or cells: left ventricle of Yucatan minipigs
In short: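 NADH depletion (A340) coupled through pyruvate kinase/lactate dehydrogenase reports ATPase rate of porcine left-ventricle myofibrils over 75 min kinetic reads. Regression slopes, vehicle-normalized, fitted by 4-parameter logistic give EC25 and, where available, EC50.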

Porcine Atria myofibrils = assay: Myofibril ATPase assay (PK/LDH NADH-coupled), atria myofibrils
In short: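 Values are EC25% (and, for inhibitors, EC50%) from 4-parameter logistic fits of activity normalized to vehicle wells. Rates came from linear regression of 340 nm kinetic reads (every 1.5-2 min, 75 min) of NADH-coupled ATP turnover by porcine atria myofibrils.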

T1 sequence (P79293 whole entry): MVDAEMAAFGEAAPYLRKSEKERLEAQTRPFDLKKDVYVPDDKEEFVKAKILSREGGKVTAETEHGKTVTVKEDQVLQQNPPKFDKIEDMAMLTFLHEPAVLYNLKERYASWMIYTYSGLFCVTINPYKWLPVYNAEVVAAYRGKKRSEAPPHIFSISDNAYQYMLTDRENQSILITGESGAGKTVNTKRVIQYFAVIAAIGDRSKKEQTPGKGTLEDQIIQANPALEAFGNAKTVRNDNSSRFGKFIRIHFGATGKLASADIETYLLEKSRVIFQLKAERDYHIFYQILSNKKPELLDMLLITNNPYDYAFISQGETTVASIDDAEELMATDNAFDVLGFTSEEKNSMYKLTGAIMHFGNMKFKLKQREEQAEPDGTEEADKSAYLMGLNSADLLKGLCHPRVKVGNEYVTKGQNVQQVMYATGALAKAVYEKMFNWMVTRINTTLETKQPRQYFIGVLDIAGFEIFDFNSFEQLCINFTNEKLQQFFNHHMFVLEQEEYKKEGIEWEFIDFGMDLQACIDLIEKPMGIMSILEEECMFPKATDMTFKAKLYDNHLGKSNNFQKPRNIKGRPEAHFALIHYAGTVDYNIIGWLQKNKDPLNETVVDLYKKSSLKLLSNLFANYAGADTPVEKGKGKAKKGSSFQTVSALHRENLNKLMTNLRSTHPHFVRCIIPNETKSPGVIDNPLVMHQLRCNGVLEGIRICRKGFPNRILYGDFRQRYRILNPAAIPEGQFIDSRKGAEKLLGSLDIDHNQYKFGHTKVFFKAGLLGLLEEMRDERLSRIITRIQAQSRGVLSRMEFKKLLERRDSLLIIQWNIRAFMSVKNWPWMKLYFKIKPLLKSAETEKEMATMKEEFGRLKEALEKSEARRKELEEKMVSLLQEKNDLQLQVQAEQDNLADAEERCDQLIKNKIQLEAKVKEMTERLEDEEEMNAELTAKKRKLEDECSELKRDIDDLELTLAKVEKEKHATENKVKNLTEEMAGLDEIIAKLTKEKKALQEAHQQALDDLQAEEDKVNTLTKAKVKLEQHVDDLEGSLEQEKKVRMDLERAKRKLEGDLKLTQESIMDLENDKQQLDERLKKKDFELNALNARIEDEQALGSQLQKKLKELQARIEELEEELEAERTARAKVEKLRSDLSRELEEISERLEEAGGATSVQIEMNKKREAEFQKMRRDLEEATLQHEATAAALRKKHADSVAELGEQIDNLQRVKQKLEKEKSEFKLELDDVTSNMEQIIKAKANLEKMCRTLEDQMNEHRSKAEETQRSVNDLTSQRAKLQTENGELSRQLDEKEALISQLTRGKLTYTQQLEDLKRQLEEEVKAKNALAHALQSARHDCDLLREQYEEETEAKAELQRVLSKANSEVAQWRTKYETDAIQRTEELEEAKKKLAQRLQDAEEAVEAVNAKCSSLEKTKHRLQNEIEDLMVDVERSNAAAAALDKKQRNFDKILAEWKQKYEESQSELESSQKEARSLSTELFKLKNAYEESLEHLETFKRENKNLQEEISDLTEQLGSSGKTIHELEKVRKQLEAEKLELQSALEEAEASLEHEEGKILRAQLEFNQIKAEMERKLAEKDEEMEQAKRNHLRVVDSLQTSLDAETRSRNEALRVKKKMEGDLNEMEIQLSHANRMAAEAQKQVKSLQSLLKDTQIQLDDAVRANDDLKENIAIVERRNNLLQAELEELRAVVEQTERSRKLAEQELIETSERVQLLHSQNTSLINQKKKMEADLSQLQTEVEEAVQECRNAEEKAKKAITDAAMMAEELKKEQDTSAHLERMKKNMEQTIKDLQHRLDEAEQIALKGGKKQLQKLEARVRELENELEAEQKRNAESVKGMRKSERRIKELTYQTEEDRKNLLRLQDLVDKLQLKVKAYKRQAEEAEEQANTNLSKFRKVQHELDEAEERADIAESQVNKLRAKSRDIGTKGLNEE

SMILES	Rabbit Psoas IC25 ([1]; Table 8)	Porcine Ventricle IC25 ([2]; Table 8)	Porcine Atria IC25 (Porcine Atria myofibrils; Table 8)	Rabbit Psoas IC25 ([1]; Table 7)	Porcine Ventricle IC25 ([2]; Table 7)	Porcine Atria IC25 (Porcine Atria myofibrils; Table 7)
C[C@H](NC(=O)CN1Cc2c(ccc(F)c2C#N)NC1=O)c1ccc(C#N)cn1 [Compound B112]	0.079 µM	2.318 µM	1.51 µM	–	–	–
N#Cc1cc(F)c2c(c1)OC[C@H]2NC(=O)CN1Cc2c(ccnc2C(F)(F)F)NC1=O [Compound N5]	–	–	–	0.0178 µM	0.1154 µM	0.07 µM
C[C@H](NC(=O)CN1Cc2c(ccc(F)c2F)NC1=O)c1ccc2ccccc2n1 [Compound B289]	100.00 µM	100.00 µM	100.00 µM	–	–	–
C[C@H](NC(=O)CN1Cc2c(ccc(F)c2C#N)NC1=O)c1ncc(C#N)cc1F [Compound B132]	0.0313 µM	0.1715 µM	0.08 µM	–	–	–
CC(C)C[C@@H](C(=O)N[C@@H](C)c1ccc(F)cc1F)N1Cc2nc(F)ccc2NC1=O [Compound N89]	–	–	–	100 µM	100 µM	100.00 µM
C[C@H](NC(=O)CN1Cc2c(ccc(F)c2F)NC1=O)c1ncc(Cl)cc1F [Compound B82]	0.0183 µM	0.0561 µM	0.03 µM	–	–	–
Cc1ncnc([C@@H](C)NC(=O)CN2Cc3c(ccc(F)c3F)NC2=O)c1F [Compound B343]	100.00 µM	100.00 µM	4.12 µM	–	–	–
COc1ccc2c(n1)CN([C@H](C)C(=O)N[C@@H](C)c1ccc(F)cc1F)C(=O)N2 [Compound N106]	–	–	–	3.732 µM	100 µM	2.58 µM
COc1ccc2c(n1)C1(CC1)N(CC(=O)N[C@@H](C)c1ccc(F)cc1F)C(=O)N2 [Compound N87, N-[(1S)-1-(2,4-Difluorophenyl)ethyl]-2-{6′-methoxy-2′-oxo-1′H-spiro[cyclopropane-1,4′-pyrido[3,2-d]pyrimidin]-3′-yl}acetamide]	–	–	–	0.0571 µM	0.1682 µM	0.03 µM
C[C@H](NC(=O)CN1C(=O)Nc2ccccc2[C@H]1C)c1ccc(F)cc1F [Compound B156]	0.232 µM	10.58 µM	4.12 µM	–	–	–
C[C@H](NC(=O)CN1Cc2c(ccc(F)c2F)NC1=O)c1ncc(-n2ncnn2)cc1F [Compound B265]	100.00 µM	5.36 µM	1.88 µM	–	–	–
N#Cc1nccc2c1CN(CC(=O)N[C@@H]1COc3cc(F)cc(F)c31)C(=O)N2 [Compound N7]	–	–	–	0.0355 µM	0.266 µM	0.11 µM
O=C(CN1Cc2c(ccc(F)c2F)NC1=O)N[C@@H]1COc2c(F)cc(F)cc2C1 [Compound B101]	1.059 µM	0.5759 µM	0.15 µM	–	–	–
C[C@@H](NC(=O)CN1Cc2c(ccc(F)c2F)NC1=O)c1cc2c(cn1)N(C)CCO2 [Compound B360]	100.00 µM	9.49 µM	44.86 µM	–	–	–
Cc1cc(F)ccc1[C@@H](C)NC(=O)CN1Cc2cc(F)ccc2NC1=O [Compound B224]	3.991 µM	100 µM	28.57 µM	–	–	–
C[C@@H](NC(=O)CN1Cc2c(F)cncc2NC1=O)c1ncc(F)cc1F [Compound N63]	–	–	–	100 µM	100 µM	100.00 µM
C[C@@H](NC(=O)CN1Cc2c(ccc(F)c2F)NC1=O)c1cc2c(cn1)OCCN2 [Compound B364]	100.00 µM	100.00 µM	20.41 µM	–	–	–
CC(=O)N1CC2(C1)c1cc(F)ccc1NC(=O)N2CC(=O)N[C@H](C)c1ncc(C#N)cc1F [Compound B255]	100.00 µM	100.00 µM	100.00 µM	–	–	–
C[C@H]1c2ccccc2NC(=O)N1CC(=O)N[C@@H](CO)c1ccc(F)cc1F [Compound B201]	18.61 µM	100 µM	25.98 µM	–	–	–
Cc1cc(F)cc2c1CN(CC(=O)N[C@@H](C)c1ccc(C#N)cc1F)C(=O)N2 [Compound B57]	0.0139 µM	0.0899 µM	0.04 µM	–	–	–
Cc1cc(F)cc2c1CN(CC(=O)N[C@H](C)c1ccc(C#N)cc1F)C(=O)N2 [Compound B56]	1.887 µM	1.991 µM	1.64 µM	–	–	–
C[C@H](NC(=O)CN1Cc2c(C#N)cncc2NC1=O)c1ncc(F)cc1F [Compound N39]	–	–	–	1.979 µM	51.8 µM	9.59 µM
C[C@H](NC(=O)CN1Cc2c(ccc(F)c2F)NC1=O)c1nc(-c2ccc(F)cn2)no1 [Compound B86]	100 µM	100 µM	100.00 µM	–	–	–
O=C(CN1Cc2cc(F)ccc2NC1=O)N[C@H](CO)c1ncc(F)cc1F [Compound B180]	100 µM	100 µM	100.00 µM	–	–	–
C[C@@H](NC(=O)CN1C(=O)Nc2ccc(C#N)cc2C12CC2)c1ncc(F)cc1F [Compound B149]	0.1803 µM	100 µM	73.55 µM	–	–	–
C[C@H](NC(=O)CN1Cc2c(ccc(F)c2F)NC1=O)c1ccc(C#N)cn1 [Compound B136]	0.0645 µM	0.764 µM	0.42 µM	–	–	–
C[C@@H](NC(=O)CN1Cc2nc(F)ccc2NC1=O)c1ncc(F)cc1F [Compound N104, N-[(1R)-1-(3,5-Difluoropyridin-2-yl)ethyl]-2-[6-fluoro-2-oxo-1H,4H-pyrido[3,2-d]pyrimidin-3-yl]acetamide]	–	–	–	0.1699 µM	4.155 µM	0.16 µM
